Measurements as given in article PMC8625619, “Carbonic Anhydrase Inhibition with Sulfonamides Incorporating Pyrazole- and Pyridazinecarboxamide Moieties Provides Examples of Isoform-Selective Inhibitors” (Molecules, 2021).

Experiments:
hCA II = hCA II (Homo sapiens, UniProt P00918); test: stopped flow CO2 hydrase assay, hCA II
Protocol: (§1) An Applied Photophysics stopped-flow instrument was used for assaying the CA-catalyzed CO2 hydration activity [50]. […] However, the background activity from the uncatalyzed reaction was always subtracted when IC50 values were obtained by using the data analysis software for the stopped-flow instrument. […] The uncatalyzed rates were determined in the same manner and subtracted from the total observed rates. Stock solutions of the inhibitor (0.1 mM) were prepared in distilled–deionized water, and dilutions up to 0.01 nM were performed thereafter with the assay buffer. Inhibitor and enzyme solutions were preincubated together for 15 min at room temperature prior to the assay, to allow for the formation of the E–I complex. The inhibition constants were obtained by nonlinear least-squares methods using PRISM 3 and the Cheng–Prusoff equation as reported earlier and represented the mean from at least three different determinations. All CA isoforms were recombinant proteins obtained in-house, as reported earlier [2, 51, 52].

hCA IX = hCA IX (Homo sapiens, UniProt Q16790); test: stopped flow CO2 hydrase assay, hCA IX
Protocol: as §1

hCA I = hCA I (Homo sapiens, UniProt P00915); test: stopped flow CO2 hydrase assay, hCA I
Sequence of hCA I (P00915 whole entry): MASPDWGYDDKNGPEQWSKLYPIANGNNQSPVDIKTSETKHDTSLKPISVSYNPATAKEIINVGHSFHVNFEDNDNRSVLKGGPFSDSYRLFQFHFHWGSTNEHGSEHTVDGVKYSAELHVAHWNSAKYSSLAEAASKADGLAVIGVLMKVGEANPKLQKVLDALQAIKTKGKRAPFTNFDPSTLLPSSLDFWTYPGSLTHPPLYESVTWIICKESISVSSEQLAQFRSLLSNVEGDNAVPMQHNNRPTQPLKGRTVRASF
Protocol: as §1

hCA XII = hCA XII (Homo sapiens, UniProt O43570); test: stopped flow CO2 hydrase assay, hCA XII
Sequence of hCA XII (O43570 25-354): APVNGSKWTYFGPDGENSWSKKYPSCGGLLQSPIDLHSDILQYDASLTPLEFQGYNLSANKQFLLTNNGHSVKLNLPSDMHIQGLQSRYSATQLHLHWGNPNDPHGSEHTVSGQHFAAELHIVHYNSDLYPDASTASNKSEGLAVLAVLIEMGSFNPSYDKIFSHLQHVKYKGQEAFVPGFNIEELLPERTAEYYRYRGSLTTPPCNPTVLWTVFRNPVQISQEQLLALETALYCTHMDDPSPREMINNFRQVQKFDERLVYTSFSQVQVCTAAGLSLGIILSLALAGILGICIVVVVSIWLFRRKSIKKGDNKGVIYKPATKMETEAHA
Protocol: as §1

| melting point [°C] | Ki (hCA II) [µM] | Ki (hCA IX) [µM] | Ki (hCA I) [µM] | Ki (hCA XII) [µM] | selectivity index (SI) for hCA II towards hCA I (hCA II; hCA II compared to hCA I) | selectivity index (SI) for hCA II compared to hCA IX (hCA II; hCA II compared to hCA IX) | selectivity index on hCA IX compared to hCA I (hCA IX; hCA IX compared to hCA I) | selectivity index on hCA IX compared to hCA II (hCA IX; hCA IX compared to hCA II) | Structure (SMILES) |
| --- | --- | --- | --- | --- | --- | --- | --- | --- | --- |
| 254 to 255 | 0.0162 | 0.0161 | 0.345 | 0.33 | – | – | – | – | Cc1ccc(-c2cc(C(=O)NCCc3ccc(S(N)(=O)=O)cc3)[nH]n2)c(O)c1 [5b, N-{2-[4-(Aminosulfonyl)phenyl]ethyl}-3-(2-hydroxy-4-methylphenyl)-1H-pyrazole-5-carboxamide] |
| – | 0.309 | 0.0789 | 0.0933 | 0.372 | – | – | – | – | Cc1ccc(-c2cc(C(=O)Nc3ccc(S(N)(=O)=O)cc3)[nH]n2)c(O)c1 [4b, N-[4-(Aminosulfonyl)phenyl]-3-(2-hydroxy-4-methylphenyl)-1H-pyrazole-5-carboxamide] |
| – | 0.0162 | 0.0523 | 0.0714 | 0.191 | – | – | – | – | Cc1cc(C)c(O)c(-c2cc(C(=O)NCCc3ccc(S(N)(=O)=O)cc3)[nH]n2)c1 [5e, N-{2-[4-(Aminosulfonyl)phenyl]ethyl}-3-(2-hydroxy-3,5-dimethylphenyl)-1H-pyrazole-5-carboxamide] |
| – | 0.0091 | 0.0794 | 2.15 | 0.0773 | 236 | 8.7 | – | – | NS(=O)(=O)c1ccc(CCNC(=O)c2cc(-c3cc(Cl)ccc3O)n[nH]2)cc1 [5f, N-{2-[4-(Aminosulfonyl)phenyl]ethyl}-3-(5-chloro-2-hydroxyphenyl)-1H-pyrazole-5-carboxamide] |
| 256 to 258 | 0.0252 | 0.0635 | 0.218 | 0.0613 | – | – | – | – | Cc1cc(O)c(-c2cc(C(=O)NCCc3ccc(S(N)(=O)=O)cc3)[nH]n2)cc1C [5d, N-{2-[4-(Aminosulfonyl)phenyl]ethyl}-3-(2-hydroxy-4,5-dimethylphenyl)-1H-pyrazole-5-carboxamide] |
| – | – | – | 0.0881 | – | – | – | – | – | NS(=O)(=O)c1ccc(CCNC(=O)c2cc(-c3ccccc3O)n[nH]2)cc1 [5a, N-{2-[4-(Aminosulfonyl)phenyl]ethyl}-3-(2-hydroxyphenyl)-1H-pyrazole-5-carboxamide] |
| 297 to 299 | 0.0161 | 0.0085 | 0.221 | 0.25 | – | – | 26 | two times | Cc1ccc(O)c(-c2cc(C(=O)Nc3ccc(S(N)(=O)=O)cc3)[nH]n2)c1 [4c, N-[4-(Aminosulfonyl)phenyl]-3-(2-hydroxy-5-methylphenyl)-1H-pyrazole-5-carboxamide] |

The remaining lines, values behind:

| Structure (SMILES) | melting point [°C] | Ki (hCA II) [µM] | Ki (hCA IX) [µM] | Ki (hCA I) [µM] | Ki (hCA XII) [µM] | selectivity index (SI) for hCA II towards hCA I (hCA II; hCA II compared to hCA I) | selectivity index (SI) for hCA II compared to hCA IX (hCA II; hCA II compared to hCA IX) | selectivity index on hCA IX compared to hCA I (hCA IX; hCA IX compared to hCA I) | selectivity index on hCA IX compared to hCA II (hCA IX; hCA IX compared to hCA II) |
| --- | --- | --- | --- | --- | --- | --- | --- | --- | --- |
| NS(=O)(=O)c1ccc(NC(=O)c2cc(-c3cc(Cl)ccc3O)n[nH]2)cc1 [4f, N-[4-(Aminosulfonyl)phenyl]-3-(5-chloro-2-hydroxyphenyl)-1H-pyrazole-5-carboxamide] | 302 to 304 | 0.0372 | 0.0342 | 0.155 | 0.0908 | – | – | – | – |
| COc1cc2c(cc1OC)-c1c(c(C(=O)Nc3ccc(S(N)(=O)=O)cc3)nn1C)C2 [compound 15, N-[4-(Aminosulfonyl)phenyl]-6,7-dimethoxy-1-methyl-1,4-dihydroindeno[1,2-c]pyrazole-3-carboxamide] | – | – | 0.0061 | 0.726 | – | – | – | – | – |
| NS(=O)(=O)c1ccc(NC(=O)c2nn(-c3ccc(Cl)cc3)ccc2=O)cc1 [10d, N-[4-(Aminosulfonyl)phenyl]-1-(4-chlorophenyl)-4-oxo-1,4-dihydropyridazine-3-carboxamide] | 310 to 312 | 0.008 | 0.165 | 0.0062 | 0.0657 | – | – | – | – |
| NS(=O)(=O)c1ccc(NC(=O)c2nn(-c3cccc(Cl)c3)ccc2=O)cc1 [10c, N-[4-(Aminosulfonyl)phenyl]-1-(3-chlorophenyl)-4-oxo-1,4-dihydropyridazine-3-carboxamide] | 297 to 299 | 0.0763 | 0.569 | 0.84 | 0.433 | – | – | – | – |
| NS(=O)(=O)c1ccc(NC(=O)c2cc(-c3ccccc3O)[nH]n2)cc1 [4a, N-[4-(Aminosulfonyl)phenyl]-3-(2-hydroxyphenyl)-1H-pyrazole-5-carboxamide] | – | 0.867 | 0.45 | 3.82 | 0.271 | – | – | – | – |
| NS(=O)(=O)c1ccc(NC(=O)c2nn(-c3ccc(F)cc3)ccc2=O)cc1 [10b, N-[4-(Aminosulfonyl)phenyl]-1-(4-fluorophenyl)-4-oxo-1,4-dihydropyridazine-3-carboxamide] | 313 to 315 | 0.0725 | 0.131 | 0.481 | 0.0948 | – | – | – | – |
